According to patent publication US20170291890A1 (Epizyme, Inc., priority 2014, published 2017):
pIC50: −log10 of the molar value. Like-named read-outs stand apart in the source and are kept apart here.

Legend:
KDM4C = molecular target: T1, KDM4C (Homo sapiens, UniProt Q9H3R0); test: KDM4C Assay (SAMDI mass spectrometry demethylase assay); assay type: biochemical; conditions: N-terminal GST-tagged KDM4C 2-372, read-out: 4C IC50
T1 construct: N-terminal GST-tagged KDM4C^2-372 was purchased from BPS Biosciences; GST (N); purchased BPS Biosciences
T1 sequence (Q9H3R0 2-372): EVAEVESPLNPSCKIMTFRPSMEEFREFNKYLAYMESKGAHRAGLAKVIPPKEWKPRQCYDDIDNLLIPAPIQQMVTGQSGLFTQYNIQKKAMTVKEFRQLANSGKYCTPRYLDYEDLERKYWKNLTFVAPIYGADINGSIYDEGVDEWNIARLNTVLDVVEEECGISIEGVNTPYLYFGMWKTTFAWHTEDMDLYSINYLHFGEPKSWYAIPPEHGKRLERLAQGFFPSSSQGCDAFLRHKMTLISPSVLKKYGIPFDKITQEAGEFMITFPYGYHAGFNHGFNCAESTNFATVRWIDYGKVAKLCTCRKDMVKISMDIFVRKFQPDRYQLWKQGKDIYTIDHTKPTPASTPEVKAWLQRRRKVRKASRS
Method: (§1) N-terminal GST-tagged KDM4C^2-372 was purchased from BPS Biosciences. Peptides were synthesized by BioPeptide and all other reagents were purchased from Sigma-Aldrich at the highest level of purity possible. Assays were performed in a 50 μL volume in 384-well V-bottom polypropylene microplates (Greiner) at 25° C. Optimized 1× assay buffer was 50 mM HEPES (pH=8.0), 100 μM sodium ascorbate, 20 mM NaCl, 10 μM ammonium iron sulfate, 1 mM tris(2-carboxyethyl)phosphine (TCEP), 0.002% Tween-20, and 0.005% BSG. For compound screening, 35 μL of KDM4C^2-372 (final concentration, f.c.=5 nM) was added using a Multidrop Combi and preincubated with 1 μL of test compound (f.c.=10 μM) for 30 minutes and subsequently 15 μL of peptide with the following sequence NH2-ARTKQTAR(Kme3)STGGKAPRKQLA(K-Ahx-Biotin)-amide (f.c.=500 nM) and 2-oxoglutarate (f.c.=15 μM) was added by Multidrop Combi to begin the reaction. Reactions proceeded for 150 minutes and were stopped by the addition of 5 μL of formic acid (f.c.=0.5%) using a Multidrop Combi and then analyzed by SAMDI Tech Inc.
(§2) SAMDI Tech analyzed all reactions using self-assembled monoloayer desorption/ionization technology as previously described (Gerard-Levin Z A, Scholle M D, Eisenberg A H, et al.: High-throughput screening of small molecule libraries using SAMDI mass spectrometry. ACS Comb Sci 2011; 13:347-350). Briefly, a 2 μL sample of the stopped demethylase reactions were transferred to a SAMDI array coated with 384 biotin-neutravidin spots using a 384-channel pipet station. The SAMDI arrays were incubated for 1 h in a humidified chamber, followed by washing of the surface with deionized ultra-filtered water (DIUF) and drying under nitrogen. A matrix of 30 mg/ml 2′,4′,6′-Trihydroxyacetophenone monohydrate (THAP) in acetone was applied using a TPP Mosquito 1.2 μL tip by dispensing 50 nL on each of the 384 spots on the array. SAMDI-MS was run using acquisition method ReflectorPositiveUTX. The % conversion of substrate to product was calculated using the AUC of the substrate and product peptide peaks.
(§3) An IC50 value was determined by contacting various concentrations of a test compound with one of the KDM4A, KDM4C or KDMSC enzyme constructs and plotting a dose-response curve which associates the amount of inhibition of the enzyme relative to the concentration of the test compound. From the curve, the IC50 value (which represents the concentration of the test compound necessary to inhibit maximal enzymatic activity by 50%) was determined. Additionally, the slope of the linear range of the plotted curve, which indicates the speed with which the curve rises between the minimum and maximum, was calculated.

KDM5A = molecular target: T2, KDM5A (Homo sapiens, UniProt P29375); test: KDM5A Assay (SAMDI mass spectrometry demethylase assay); assay type: biochemical; conditions: C-terminal FLAG-tagged KDM5A 1-1090, read-out: 5A IC50
T2 construct: C-terminal FLAG-tagged KDM5A^1-1090 was purchased from BPS Biosciences; FLAG (C); purchased BPS Biosciences
T2 sequence (P29375 1-1090): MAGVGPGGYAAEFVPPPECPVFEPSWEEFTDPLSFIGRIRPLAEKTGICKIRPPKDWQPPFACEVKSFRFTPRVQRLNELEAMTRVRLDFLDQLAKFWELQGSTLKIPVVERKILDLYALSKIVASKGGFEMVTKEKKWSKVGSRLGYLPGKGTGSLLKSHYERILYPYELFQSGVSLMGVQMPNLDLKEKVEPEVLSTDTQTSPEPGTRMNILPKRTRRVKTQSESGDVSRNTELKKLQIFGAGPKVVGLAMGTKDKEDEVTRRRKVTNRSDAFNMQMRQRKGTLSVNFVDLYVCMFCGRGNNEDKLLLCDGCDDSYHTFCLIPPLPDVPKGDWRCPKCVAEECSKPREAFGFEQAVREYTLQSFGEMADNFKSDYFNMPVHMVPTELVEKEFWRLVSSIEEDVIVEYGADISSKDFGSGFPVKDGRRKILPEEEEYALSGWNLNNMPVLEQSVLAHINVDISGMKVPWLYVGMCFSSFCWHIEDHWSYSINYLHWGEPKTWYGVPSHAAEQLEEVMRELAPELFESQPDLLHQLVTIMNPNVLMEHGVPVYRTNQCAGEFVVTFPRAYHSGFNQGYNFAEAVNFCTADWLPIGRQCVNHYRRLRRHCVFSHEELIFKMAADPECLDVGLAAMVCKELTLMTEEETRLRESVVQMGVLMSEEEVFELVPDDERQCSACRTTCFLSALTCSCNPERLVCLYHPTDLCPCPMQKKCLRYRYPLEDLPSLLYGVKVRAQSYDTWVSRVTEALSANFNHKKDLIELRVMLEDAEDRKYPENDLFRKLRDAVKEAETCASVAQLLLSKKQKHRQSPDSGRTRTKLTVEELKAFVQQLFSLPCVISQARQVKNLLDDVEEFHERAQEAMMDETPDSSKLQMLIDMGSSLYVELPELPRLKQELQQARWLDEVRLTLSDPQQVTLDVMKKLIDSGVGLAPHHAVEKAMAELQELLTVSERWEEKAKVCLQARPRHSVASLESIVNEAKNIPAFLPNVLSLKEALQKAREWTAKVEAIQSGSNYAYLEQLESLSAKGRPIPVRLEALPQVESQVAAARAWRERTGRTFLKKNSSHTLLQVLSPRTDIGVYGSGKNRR
Method: as §1, with “C-terminal FLAG-tagged KDM5A^1-1090” for “N-terminal GST-tagged KDM4C^2-372”, “[…]” for “KDM4C^2-372”, “f.c.=20” for “f.c.=5”, “NH2-ART[Kme-3]QTARKSTGGKA[K-Ahx-Biot]-amide (f.c.=250” for “NH2-ARTKQTAR(Kme3)STGGKAPRKQLA(K-Ahx-Biotin)-amide (f.c.=500”
as §2, §3

pIC50 (KDM4C; numeric bound) | pIC50 (KDM5A; class symbols) | pIC50 (KDM4C; class symbols) | pIC50 (KDM5A; numeric bound) | SMILES
< 4.00 | 4.00 to 5.00 |  |  | Cc1nn([C@@H]2CCN(C)C2)cc1Nc1cnccc1C(=O)NCCO [Compound 122, (R)—N-(2-hydroxy-ethyl)-3-((3-methyl-1-(1-methylpyrrolidin-3-yl)-1H-pyrazol-4-yl)amino)isonicotin-amide]
 | 5.00 to 6.00 | 5.00 to 6.00 |  | CN(C)CCc1cn(-c2ccccc2)nc1Nc1cnccc1C(=O)O [Compound 144, 3-(4-(2-(dimethylamino)ethyl)-1-phenyl-1H-pyrazol-3-ylamino) isonicotinic acid]
 | 6.00 to 7.00 | 6.00 to 7.00 |  | O=C(O)c1ccncc1Nc1cnn(C2CCN(Cc3ccccc3)C2)c1-c1ccccc1 (centres unmarked) [Compound 125, 3-(1-(1-benzylpyrrolidin-3-yl)-5-phenyl-1H-pyrazol-4-ylamino) isonicotinic acid]
< 4.00 |  |  | < 4.00 | Cc1nn([C@H]2CCN(C)C2)cc1Nc1cnccc1C(=O)NCCO [Compound 121, (S)—N-(2-hydroxyethyl)-3-((3-methyl-1-(1-methylpyrrolidin-3-yl)-1H-pyrazol-4-yl)amino)isonicotinamide]
 | 7.00 to 9.00 | 6.00 to 7.00 |  | CN1CCC(n2cc(-c3ccccc3)c(Nc3cnccc3C(=O)O)n2)CC1 [Compound 130, 3-(1-(1-methylpiperidin-4-yl)-4-phenyl-1H-pyrazol-3-ylamino) isonicotinic acid]
 | 5.00 to 6.00 | 6.00 to 7.00 |  | CCc1c(Nc2cnccc2C(=O)O)cnn1C1CCN(C)CC1 [Compound 123, 3-(5-ethyl-1-(1-methylpiperidin-4-yl)-1H-pyrazol-4-ylamino) isonicotinic acid]
 | 5.00 to 6.00 | 5.00 to 6.00 |  | CN1CCC(n2ncc(Nc3cnccc3C(=O)O)c2-c2ccccc2)C1 (centres unmarked) [Compound 124]
 | 5.00 to 6.00 | 6.00 to 7.00 |  | Cc1c(Nc2cnccc2C(=O)O)cnn1C1CCCNCC1 (single isomer, unassigned) [Compound 113]
 | 5.00 to 6.00 | 6.00 to 7.00 |  | Cc1c(Nc2cnccc2C(=O)O)cnn1C1CCCN(C2CCC2)CC1 (single isomer, unassigned) [Compound 119]
 | 7.00 to 9.00 | 6.00 to 7.00 |  | Cc1nn([C@H]2CNC[C@H]2C)cc1Nc1cnccc1C(=O)O (single isomer, unassigned) [Compound 110]
 | 7.00 to 9.00 | 6.00 to 7.00 |  | Cc1cn(-c2cccc3c2CCNC3)nc1Nc1cnccc1C(=O)O [Compound 143, 3-(4-methyl-1-(1,2,3,4-tetrahydroisoquinolin-5-yl)-1H-pyrazol-3-ylamino)isonicotinic acid]
 | 4.00 to 5.00 | 4.00 to 5.00 |  | O=C(O)c1ccncc1Nc1c(-c2ccccc2)cnn1[C@H]1CNc2ccccc2C1 [Compound 137, (R)-3-(4-phenyl-1-(1,2,3,4-tetrahydroquinolin-3-yl)-1H-pyrazol-5-ylamino)isonicotinic acid]
 | 7.00 to 9.00 | 6.00 to 7.00 |  | Cc1nn(C2CCN(c3ccccc3)CC2)cc1Nc1cnccc1C(=O)O [Compound 105, 3-(3-methyl-1-(1-phenylpiperidin-4-yl)-1H-pyrazol-4-ylamino) isonicotinic acid]
 | 5.00 to 6.00 | 7.00 to 9.00 |  | Cc1c(Nc2cnccc2C(=O)O)cnn1C1CCN(c2ccccc2)CC1 [Compound 106, 3-(5-methyl-1-(1-phenylpiperidin-4-yl)-1H-pyrazol-4-ylamino)isonicotinic acid]
 | 7.00 to 9.00 | 6.00 to 7.00 |  | O=C(O)c1ccncc1Nc1nn(C2CCNCC2)cc1-c1ccccc1 [Compound 129, 3-(4-phenyl-1-(piperidin-4-yl)-1H-pyrazol-3-ylamino) isonicotinic acid]
 | 6.00 to 7.00 | 6.00 to 7.00 |  | Cc1nn(C2CCCN(C3CCC3)CC2)cc1Nc1cnccc1C(=O)O (single isomer, unassigned) [Compound 120]
 | 5.00 to 6.00 | 5.00 to 6.00 |  | Cc1c(Nc2cnccc2C(=O)O)cnn1CCN(C)C [Compound 108]
 | 6.00 to 7.00 | 5.00 to 6.00 |  | Cc1nn(C2CCCN(C3CCC3)CC2)cc1Nc1cnccc1C(=O)O (single isomer, unassigned) [Compound 118]
 | 4.00 to 5.00 | 4.00 to 5.00 |  | Cc1cnn(C2CCCN(CCN)C2)c1Nc1cnccc1C(=O)O (centres unmarked) [Compound 140, 3-(1-(1-(2-aminoethyl)piperidin-3-yl)-4-methyl-1H-pyrazol-5-yl-amino)isonicotinic acid]
 | 6.00 to 7.00 | 6.00 to 7.00 |  | CN1CCC(n2cc(Nc3cnccc3C(=O)O)c(-c3ccccc3)n2)CC1 [Compound 127, 3-(1-(1-methylpiperidin-4-yl)-3-phenyl-1H-pyrazol-4-ylamino)isonicotinic acid]
 | 6.00 to 7.00 | 6.00 to 7.00 |  | Cc1cn(Cc2ccccc2)nc1Nc1cnccc1C(=O)O [Compound 128, 3-(1-benzyl-4-methyl-1H-pyrazol-3-ylamino)isonicotinic acid]
 | 6.00 to 7.00 | 5.00 to 6.00 |  | Cc1nn([C@@H]2CNC[C@@H]2C)cc1Nc1cnccc1C(=O)O (single isomer, unassigned) [Compound 109]
